This note sets out measurements from patent EP2119770B1, “Production of alpha-oxyfunctionalized carbonyl compounds” (priority 2008, dated 2009).

The structures appear in SMILES notation. Where only a bound is given, the exact number is not on record here.

Holding throughout (assay type): biochemical
Experiment [1] concerns the target T1, Gox0644 (Gluconobacter oxydans, UniProt Q5FT75). Put plainly: Enzyme activity assay (rate of NAD(P)H decrease at 340 nm), Gox0644. To be noted: 10 mM substrate; for Specific Activity: Tab. 4, Gox0644, cofactor NADPH, pH 7.0, 30 °C; for Activity: Table 3, Gox0644, K-phosphate buffer pH 7.0, 0.05 mM NAD(P)H, 30 °C. How it is done: (§1) Reactions were induced by addition of enzyme or substrate. One unit of enzyme activity was defined as the amount of enzyme catalyzing the conversion of 1 µmol of pyridine nucleotide per min at 30 °C.
as §1
For each enzyme (Gox0313, Gox0502, Gox0644, Gox0646, Gox1615, Gox2107, and Gox2684 respectively), fresh enzyme preparations were used to validate the substrate spectrum and the kinetic activity. […] Reactions were induced by addition of enzyme or substrate. One unit of enzyme activity was defined as the amount of enzyme catalyzing the conversion of 1 µmol of pyridine nucleotide per min at 30 °C. […] Table 3: Summary of enzymatic activities with α-diketones, α-ketoaldehydes and /or α-ketoesters

In experiment [2] the target is T2, Gox0313 (Gluconobacter oxydans, UniProt Q5FU50).
T2 sequence (Q5FU50 1-343): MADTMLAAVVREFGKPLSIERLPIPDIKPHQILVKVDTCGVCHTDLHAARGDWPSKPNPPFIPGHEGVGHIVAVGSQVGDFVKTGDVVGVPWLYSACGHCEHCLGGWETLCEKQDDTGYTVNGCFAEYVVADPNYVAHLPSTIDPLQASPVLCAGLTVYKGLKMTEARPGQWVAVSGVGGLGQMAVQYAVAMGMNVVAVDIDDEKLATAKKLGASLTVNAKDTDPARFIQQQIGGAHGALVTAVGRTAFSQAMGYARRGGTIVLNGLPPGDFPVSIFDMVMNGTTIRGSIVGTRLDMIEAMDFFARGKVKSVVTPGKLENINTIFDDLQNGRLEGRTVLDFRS
Put plainly: Enzyme activity assay (rate of NAD(P)H decrease at 340 nm), Gox0313. As to conditions: 10 mM substrate; for Specific Activity: Tab. 6, Gox0313, substrate reduction, cofactor NADH, pH 7.0, 30 °C; for Activity: Table 3, Gox0313, K-phosphate buffer pH 7.0, 0.05 mM NAD(P)H, 30 °C. The gist of the method:
(§2)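 Purified enzymes assayed at 30 °C in 40 mM potassium phosphate pH 7.0 with 10 mM substrate and NAD(P)H (0.025 mM, or 0.05 mM in the standard mixture), started by adding enzyme or substrate. Activity followed as the rate of NAD(P)H decrease at 340 nm; one unit = 1 µmol pyridine nucleotide converted per min; protein measured by Bradford.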

Experiment [3] concerns the target Gox2107 (Gluconobacter oxydans, UniProt Q5FP53). Put plainly: Enzyme activity assay (rate of NAD(P)H decrease at 340 nm), Gox2107. As to conditions: 10 mM substrate; for Specific Activity: Tab. 7, Gox2107, cofactor NADPH, pH 7.0, 30 °C. The gist of the method:
as §2

The target of experiment [4] is T1, Gox0644. The experiment is described as follows: Regioselectivity of bioconversion, product determined by NMR, Gox0644. To be noted: bioconversion with Gox1122 cofactor regeneration, NMR analysis. The source says:
Cofactor regeneration: A prerequisite for the production of α-hydroxycarbonyl compounds is the regeneration of the expensive coenzymes and the stability of the protein catalysts. By coupling two coenzyme-dependent enzyme reactions, NADPH can be continuously regenerated. […] For this purpose, we used a combined enzymatic reaction between the NADPH-dependent oxidoreductases that form α-hydroxycarbonyl compounds and the aldehyde dehydrogenase GOX1122 (see Schweiger, P. et al., J. Mol. Microbiol. Biotechnol. 13:147-155 (2007)) that produces the reduced cofactor in the course of acetaldehyde oxidation. […] The biotransformation was performed in a batch process (total volume 2.5 ml 40 mM potassium phosphate buffer pH 7). 30 µg of purified Gox1122 and of NADPH-dependent oxidoreductases and 50 µM NADPH were added. The substrate concentration in the beginning was 20 mM 2,3-pentanedione and 20 mM acetaldehyde. Fresh substrates were added every 60 min (20 mM each).
NMR: The 2.5 ml bioconversion was extracted with two times equal volume of d-chloroform. ^1H and ^13C NMR spectra were recorded on a DPX 300 Spectrometer (300 MHz) and referenced to the CDCl3 internal standard. Chemical samples analyzed with Bruker NMR Suite 2.5 software constructed final product structures.
2.7 Regioselectivity of GOX0644 and GOX1615: Tab. […] Tab. 10: Summary of Regioselectivity
5 ml bioconversions for determining regioselectivity were set up with 2 mg of proteins Gox0644 and Gox1122, 40 mM potassium phosphate buffer, pH 7.0, 50 µM NADPH. Substrates (20 mM 2,3 pentanedione and acetaldehyde) were added every 30 min. The reaction was followed for 3 h to produce quantities between 40-60 mg of product (hydroxy-pentanone).

With `CCCC(=O)C(C)=O` [2,3-hexanedione], the “Specific Activity” value in experiment [1] is 50.1 U/mg; in experiment [2], 19.6 U/mg; in experiment [3], less than 0.1 U/mg. Further, the figures for the Activity in experiment [1] and in experiment [2] were 50.1 U/mg and 19.6 U/mg, respectively. Besides, the “Product (regioselective reduction)” value in experiment [4] is 2-hydroxy-hexane-3-one.
On to `CCC(=O)C(C)=O` [2,3-pentanedione], for which the “Specific Activity” value in experiment [1] is on record as 89.3 U/mg; in experiment [2], 35.9 U/mg. For the same compound, the Activity is reported as 89.3 U/mg in experiment [1] and 35.9 U/mg in experiment [2]. In addition, the “Product (regioselective reduction)” value in experiment [4] is on record as 2-hydroxy-pentane-3-one; in experiment [4] (listed as 2,3 pentanedione), 2-hydroxy-pentan-3-one.
For `CCC(=O)C(=O)CC` [3,4-hexanedione], the “Specific Activity” value in experiment [1] is reported as 7.3 U/mg; in experiment [2] it was 19.5 U/mg; in experiment [3], less than 0.1 U/mg. Also, the Activity turned out to be 7.3 U/mg in experiment [1] and 19.5 U/mg in experiment [2].
Turning to `CC(=O)C=O` [methylglyoxal], the “Specific Activity” value is recorded as 3.4 U/mg in experiment [1], 10.6 U/mg in experiment [2] and less than 0.1 U/mg in experiment [3]. The values for the Activity in experiment [1] and in experiment [2] were 3.4 U/mg and 10.6 U/mg, respectively.
As for `O=CC(=O)c1ccccc1` [phenylglyoxal], the figures for the “Specific Activity” value in experiment [1], in experiment [2] and in experiment [3] were 66.0 U/mg, 0.5 U/mg and 35.2 U/mg, respectively. Further, the Activity in experiment [1] turned out to be 66.0 U/mg; in experiment [2], 0.5 U/mg; in experiment [3] (Table 3, Gox2107, K-phosphate buffer pH 7.0, 0.05 mM NAD(P)H, 30 °C), 35.2 U/mg. Moreover, the “Product (regioselective reduction)” value in experiment [4] was 2-hydroxy-2-phenylacetaldehyde.
